A value given as a limit tells only on which side of the number the result lay.

Series [1] can be described thus: solubility of cyanidin in water. The series is classed as physicochemical.
Series [2] can be described thus: stability of cyanidin in solution. It is filed as physicochemical.

Turning to `Oc1cc(O)c2cc(O)c(-c3ccc(O)c(O)c3)[o+]c2c1` [cyanidin], the solubility (usually the dissolved amount per volume that the medium holds) in series [1] worked out at 49 µg/mL. Also, the stability in water result in series [2] (in water at 49 mg/L) is “degrade within minutes”. In addition, the “pH of highest stability” value in series [2] (pH of the solution) was less than 5.0.

Source of the values: US20240191273A1, “ANTHOCYANIN BIOPRODUCTION IN A CELL-FREE MANUFACTURING SYSTEM” (DEBUT BIOTECHNOLOGY, INC., priority 2021, published 2024).
